Data published in PMC2720784 (Biochemistry, 2009).
Changes are numbered by the printed parent chain.

Assays:
R343V hNCRD = target: T1, R343V hNCRD (Homo sapiens, UniProt P35247, R363V); assay: Mannan competition assay, R343V; format: binding; conditions: for change in affinity of R343V relative to wild-type: competition assays
T1 sequence (P35247 223-375 R363V limits assumed): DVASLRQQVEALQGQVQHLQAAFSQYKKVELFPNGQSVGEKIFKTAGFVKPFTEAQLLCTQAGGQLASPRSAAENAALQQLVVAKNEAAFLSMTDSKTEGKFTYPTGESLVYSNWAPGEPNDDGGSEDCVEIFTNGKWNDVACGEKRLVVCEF

R343A hNCRD = target: T2, R343A hNCRD (Homo sapiens, UniProt P35247, R363A); assay: Mannan competition assay, R343A; conditions: read-out: I50 for inhibition of binding to mannan, one experiment
T2 sequence (P35247 223-375 R363A limits assumed): T1 sequence (P35247 223-375 R363V limits assumed) with V141A

Phil82 IAV [1] = format: cell-based, influenza A virus
Phil82 IAV [2] = format: cell-based, influenza A virus; conditions: n=5
Phil82 IAV [3] = format: binding, influenza A virus

OC[C@H]1OC(O)[C@@H](O)[C@@H](O)[C@@H]1O (stereo partly drawn) [D-mannose]
change in affinity of R343V relative to wild-type (R343V hNCRD): no significant increase in affinity

CO[C@H]1O[C@H](CO[C@H]2O[C@H](CO)[C@@H](O)[C@H](O)[C@@H]2O)[C@@H](O)[C@H](O[C@H]2O[C@H](CO)[C@@H](O)[C@H](O)[C@@H]2O)[C@@H]1O [TM core, methyl 3,6-Di-O-(α-D-mannopyranosyl)-α-D-mannopyranoside]
change in affinity of R343V relative to wild-type (R343V hNCRD): no significant increase in affinity

OC[C@H]1O[C@H](O[C@@H]2C(O)O[C@H](CO)[C@@H](O)[C@@H]2O)[C@@H](O)[C@@H](O)[C@@H]1O (stereo partly drawn) [alpha1–2 DM, alpha1–2 linked dimannose]
IC50 (R343A hNCRD): 362 µM
increase in affinity as compared to wild-type (R343V hNCRD; R343V vs wild-type hNCRD): 7 fold
change in affinity of R343V relative to wild-type (R343V hNCRD): greatly enhanced binding
IC50 (R343V hNCRD; read-out: I50 for inhibition of binding to mannan, R343V, n=5): 210 ± 60 µM

OC[C@H]1O[C@H](O[C@H]2[C@H](O)[C@@H](CO)OC(O)[C@H]2O)[C@@H](O)[C@@H](O)[C@@H]1O (stereo partly drawn) [α1–3 dimannose]
change in affinity of R343V relative to wild-type (R343V hNCRD): no significant increase in affinity

OC[C@H]1O[C@H](OC[C@H]2OC(O)[C@@H](O)[C@@H](O)[C@@H]2O)[C@@H](O)[C@@H](O)[C@@H]1O (stereo partly drawn) [α1–6 dimannose]
change in affinity of R343V relative to wild-type (R343V hNCRD): no significant increase in affinity

hNCRD Wild type: N-terminally tagged trimeric neck+carbohydrate recognition domain fusion protein of human SP-D, wild type
viral neutralizing activity (Phil82 IAV [1]): lacked
HA Inhibitory Concentration (Phil82 IAV [2]): >50 µg/mL
binding to IAV, solid phase binding assay (Phil82 IAV [3]): no measurable binding
